Test results from US10793566B2, “Bruton's tyrosine kinase inhibitors” (Zibo Biopolar Changsheng Pharmaceutical Co. Ltd., priority 2016, dated 2020).

Key:
BTK [1] = target: T1, BTK (Homo sapiens (Human), UniProt Q06187); test: Btk occupancy in cellular assays (PCI-33380 labeling); type: cell-based; details: Jeko-1 cells, 1.5 h pre-incubation, PCI-33380 probe
Experimental: Btk Occupancy in Cellular Assays
For PCI-33380 labeling of human B cells, 10^6 Jeko-1 cells were pre-incubated with compound for 1.5 h before labeling. Then cells were treated with PCI-33380 at 5 μM for 1 h. Washed, lysed in Ripa buffer containing sample reducing agent, and analyzed by SDS/PAGE and fluorescent gel scanning using a Typhoon scanner 9500 (GE Healthcare) (Ex, 532 nm; Em, 555 nm). The gel was then blotted and total Btk levels detected by standard Western blot with Btk antibody (CST).
Target sequence in this assay (Q06187 whole entry): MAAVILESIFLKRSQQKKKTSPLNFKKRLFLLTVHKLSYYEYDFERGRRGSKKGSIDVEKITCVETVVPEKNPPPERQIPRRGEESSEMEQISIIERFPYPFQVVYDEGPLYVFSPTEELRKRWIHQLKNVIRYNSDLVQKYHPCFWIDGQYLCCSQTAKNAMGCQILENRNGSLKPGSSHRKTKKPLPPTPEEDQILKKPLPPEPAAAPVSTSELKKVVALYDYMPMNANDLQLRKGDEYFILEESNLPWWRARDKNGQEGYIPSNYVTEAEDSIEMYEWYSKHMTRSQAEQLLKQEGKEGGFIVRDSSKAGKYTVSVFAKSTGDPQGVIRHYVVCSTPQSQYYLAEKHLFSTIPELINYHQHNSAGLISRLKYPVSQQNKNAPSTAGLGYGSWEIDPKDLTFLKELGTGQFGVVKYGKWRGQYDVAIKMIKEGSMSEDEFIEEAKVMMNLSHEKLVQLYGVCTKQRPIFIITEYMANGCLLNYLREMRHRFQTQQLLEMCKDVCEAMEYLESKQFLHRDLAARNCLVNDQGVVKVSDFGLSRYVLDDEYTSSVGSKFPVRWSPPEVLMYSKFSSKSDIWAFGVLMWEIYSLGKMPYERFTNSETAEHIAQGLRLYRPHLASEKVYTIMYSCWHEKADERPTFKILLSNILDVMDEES

BTK [2] = target: T1, BTK; test: Btk kinase assay (HTRF); type: biochemical; details: [ATP]=80 μM, BTK=3.4 nM; read-out: BTK Inhibition
Experimental: Btk Kinase Assay and Other Kinases Assay Btk kinase activity was determined using a homogenous time resolved fluorescence (HTRF) methodology. Measurements were performed in a reaction volume of 15 μL using 384-well assay plates. […] Activity was determined by the ratio of the fluorescence at 665 nm to that at 615 nm. For each compound, enzyme activity as measured at various concentrations of compound, Negative control reactions were performed in the absence of inhibitor in two replicates and eight no enzyme controls were used to determine baseline fluorescence levels.
Target sequence in this assay (Q06187 whole entry, species assumed): as the sequence (Q06187 whole entry) above

Ramos cells = test: Calcium flux assay, anti-IgM stimulated Ramos cells; type: cell-based; details: Homo sapiens, IgM-induced calcium influx, read-out: Ramos Ca Flux
Experimental: Calcium flux fluorescence-based assays were performed in aFDSS7000EX (Hamamatsu Photonics) fluorometric imaging plate reader according to manufacturer instructions. Compounds to be assayed were dissolved in DMSO, diluted to appropriate concentrations in Ca^2+ buffer ranging from 0 to 10 μM (at a dilution factor of 0.1), added 5 μl (6 X) to each well (the final DMSO concentration was 0.1% in each well). Then 12.5 μL 2× dye loading solution (Fluo-4 NW Calcium Assay Kits, Invitrogen) was added per well of a 384-well plate. Afterwards, actively growing Ramos cells (ATCC) in RPM1640 medium supplemented with 10% FBS (Invitrogen) were washed and re-plated in assay buffer (from Fluo-4 NW Calcium Assay Kits, Invitrogen) to approximately 6.4×10^6/ml (80000 cells/12.5 μL in 384-well plates). The plates were incubated at 37° C. for 30 minutes, then at room temperature for an additional 30 minutes. The plates were now ready to be used in an experiment. Immediately after the transfer and a 10-s recording of baseline fluorescence, the compound treated cells were stimulated with a goat anti-human IgM antibody ([…]; Jackson Immuno Research) and read in a FDSS for 240 seconds. Difference between the signal and that at baseline, designated adjusted relative fluorescence unit, was calculated by using a custom Excel (Microsoft, Redmond, Wash.) template to determine IgM-induced calcium influx and its inhibition by compounds. The table below show the result.

Btk [3] = target: Btk (Mus musculus (Mouse), UniProt P35991); test: Btk occupancy in vivo (PBMCs/splenocytes, PCI-33380 labeling); details: Babc/L mice, after 4 hours
Btk, sequence (P35991 whole entry): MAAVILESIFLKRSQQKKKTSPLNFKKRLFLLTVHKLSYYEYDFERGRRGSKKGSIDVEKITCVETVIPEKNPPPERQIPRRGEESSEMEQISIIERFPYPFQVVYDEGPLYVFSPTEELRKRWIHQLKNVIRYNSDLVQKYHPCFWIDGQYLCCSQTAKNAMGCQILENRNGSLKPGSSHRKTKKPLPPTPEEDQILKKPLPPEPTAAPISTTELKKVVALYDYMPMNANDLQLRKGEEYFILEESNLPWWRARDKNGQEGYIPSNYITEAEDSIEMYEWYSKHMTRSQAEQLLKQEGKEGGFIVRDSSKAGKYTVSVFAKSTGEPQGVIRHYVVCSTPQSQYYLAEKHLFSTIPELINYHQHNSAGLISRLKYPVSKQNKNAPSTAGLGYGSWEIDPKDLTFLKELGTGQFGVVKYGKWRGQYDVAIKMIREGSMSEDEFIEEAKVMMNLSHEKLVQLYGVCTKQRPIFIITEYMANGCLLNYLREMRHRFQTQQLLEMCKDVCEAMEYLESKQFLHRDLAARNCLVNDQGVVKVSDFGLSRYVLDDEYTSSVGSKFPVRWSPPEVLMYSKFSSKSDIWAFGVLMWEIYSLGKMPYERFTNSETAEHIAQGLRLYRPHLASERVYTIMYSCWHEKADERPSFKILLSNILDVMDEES
Experimental: For analysis of Btk occupancy in Babc/L mice following oral dosing of compounds after 4 hours. Isolating peripheral blood mononuclear cells (PBMCs) with mouse peripheral blood separation kit (Hao Yang Biological Manufacture CO., LTD, Tianjin) were collected from Babc/L mice (1 ml blood from two mice). Spleens were processed to splenocytes followed by 5 min incubation in red blood cell lysing buffer (from mouse peripheral blood separation kit). PBMCs or splenocytes were then PCI-33380-labeled and lysates analyzed by fluorescent gel scanning as described in cellular assays.

Row | Structure (SMILES) | concentration sufficient to fully occupy the active site of Btk (BTK [1]) | further results
1 | C=CC(=O)N1CC[C@@H](n2nc(-c3ccc(Oc4cccc(OC)c4F)cc3)c3cncc(OC)c32)C1 [Example 79, (R)-1-(3-(3-(4-(2-fluoro-3-methoxyphenoxy)phenyl)-7-methoxy-1H-pyrazolo[4,3-c]pyridin-1-yl)pyrrolidin-1-yl)prop-2-en-1-one] | 50 nM | 
2 | COc1cccc(Oc2ccc(-c3nn([C@@H]4CCCN(C(=O)/C(C#N)=C/C(C)(C)C)C4)c4c(OC)cncc34)cc2)c1F [Example 90, (R,E)-2-(3-(3-(4-(2-fluoro-3-methoxyphenoxy)phenyl)-7-methoxy-1H-pyrazolo[4,3-c]pyridin-1-yl)piperidine-1-carbonyl)-4,4-dimethylpent-2-enenitrile] |  | IC50 (BTK [2]): 0.01 to 0.1 µM
3 | C=CC(=O)N1CCC[C@@H](n2nc(-c3ccc(Oc4cccc(OC)c4F)cc3)c3cncc(OC)c32)C1 [Example 6, (R)-1-(3-(3-(4-(2-fluoro-3-methoxyphenoxy)phenyl)-7-methoxy-1H-pyrazolo[4,3-c]pyridin-1-yl)piperidin-1-yl)prop-2-en-1-one] |  | IC50 (Ramos cells): 0.01 to 0.1 µM
4 | C=CC(=O)N1CC[C@@H](n2nc(-c3ccc(Oc4cccc(OC)c4F)cc3)c3cnccc32)C1 [Example 3, (R)-1-(3-(3-(4-(2-fluoro-3-methoxyphenoxy)phenyl)-1H-pyrazolo[4,3-c]pyridin-1-yl)pyrrolidin-1-yl)prop-2-en-1-one] | 50 nM | IC50 (Ramos cells): 0.01 to 0.1 µM; Btk occupancy in vivo (Btk [3]; 10 mg/kg single oral dose): full occupancy
5 | C=CC(=O)N1CC[C@@H](n2nc(-c3ccc(Oc4cccc(OC)c4Cl)cc3)c3cncc(OC)c32)C1 [Example 69, (R)-1-(3-(3-(4-(2-chloro-3-methoxyphenoxy)phenyl)-7-methoxy-1H-pyrazolo[4,3-c]pyridin-1-yl)pyrrolidin-1-yl)prop-2-en-1-one] | 100 nM | 
6 | C=CC(=O)N1CCC[C@@H](n2nc(-c3ccc(Oc4cccc(OC)c4F)cc3)c3cncc(OCCO)c32)C1 [Example 98, (R)-1-(3-(3-(4-(2-fluoro-3-methoxyphenoxy)phenyl)-7-(2-hydroxyethoxy)-1H-pyrazolo[4,3-c]pyridin-1-yl)piperidin-1-yl)prop-2-en-1-one] | 100 nM | 
7 | C=CC(=O)N1CCC[C@@H](n2nc(-c3ccc(Oc4cccc(OC)c4Cl)cc3)c3cnccc32)C1 [Example 2, (R)-1-(3-(3-(4-(2-chloro-3-methoxyphenoxy)phenyl)-1H-pyrazolo[4,3-c]pyridin-1-yl)piperidin-1-yl)prop-2-en-1-one] | 100 nM | IC50 (Ramos cells): 0.01 to 0.1 µM; Btk occupancy in vivo (Btk [3]; 10 mg/kg single oral dose): full occupancy
8 | C=CC(=O)N1CCCC1Cn1nc(-c2ccc(Oc3cccc(OC)c3F)cc2)c2cncc(OC)c21 (centres unmarked) [Example 91, 1-(2-((3-(4-(2-fluoro-3-methoxyphenoxy)phenyl)-7-methoxy-1H-pyrazolo[4,3-c]pyridin-1-yl)methyl)pyrrolidin-1-yl)prop-2-en-1-one] |  | Btk occupancy in vivo (Btk [3]; 5 mg/kg single oral dose): full occupancy
9 | C=CC(=O)N1CC[C@@H](n2nc(-c3ccc(Oc4cccc(OC)c4F)cc3)c3cncc(OCC)c32)C1 [Example 80, (R)-1-(3-(7-ethoxy-3-(4-(2-fluoro-3-methoxyphenoxy)phenyl)-1H-pyrazolo[4,3-c]pyridin-1-yl)pyrrolidin-1-yl)prop-2-en-1-one] | 50 nM | 
10 | C=CC(=O)N1CCC[C@@H](n2nc3ccncc3c2-c2ccc(Oc3cccc(Cl)c3Cl)cc2)C1 [Example 43, (R)-1-(3-(3-(4-(2,3-dichlorophenoxy)phenyl)-2H-pyrazolo[4,3-c]pyridin-2-yl)piperidin-1-yl)prop-2-en-1-one] | 100 nM | 
11 | C=CC(=O)N1CC[C@@H](n2nc3ccncc3c2-c2ccc(Oc3cccc(Cl)c3Cl)cc2)C1 [Example 41, (R)-1-(3-(3-(4-(2,3-dichlorophenoxy)phenyl)-2H-pyrazolo[4,3-c]pyridin-2-yl)pyrrolidin-1-yl)prop-2-en-1-one] | 100 nM | 
12 | C=CC(=O)N1CC[C@@H](n2nc(-c3ccc(Oc4cccc(F)c4Cl)cc3)c3cnccc32)C1 [Example 4, (R)-1-(3-(3-(4-(2-chloro-3-fluorophenoxy)phenyl)-1H-pyrazolo[4,3-c]pyridin-1-yl)pyrrolidin-1-yl)prop-2-en-1-one] | 100 nM | IC50 (Ramos cells): 0.01 to 0.1 µM; Btk occupancy in vivo (Btk [3]; 10 mg/kg single oral dose): full occupancy

More lines, main results first:

Row | concentration sufficient to fully occupy the active site of Btk (BTK [1]) | Structure (SMILES) | further results
13 | 50 nM | C=CC(=O)N1CCC[C@@H](n2nc(-c3ccc(Oc4cccc(OC)c4F)cc3)c3c(C)nccc32)C1 [Example 78, (R)-1-(3-(3-(4-(2-fluoro-3-methoxyphenoxy)phenyl)-4-methyl-1H-pyrazolo[4,3-c]pyridin-1-yl)piperidin-1-yl)prop-2-en-1-one] | 
14 | 25 nM | C=CC(=O)N1CCC[C@@H](n2nc(-c3ccc(Oc4cccc(OC)c4F)cc3)c3cncc(OCCC)c32)C1 [Example 77, (R)-1-(3-(3-(4-(2-fluoro-3-methoxyphenoxy)phenyl)-7-propoxy-1H-pyrazolo[4,3-c]pyridin-1-yl)piperidin-1-yl)prop-2-en-1-one] | 
15 | 100 nM | C=CC(=O)N1CCC[C@@H](n2nc(-c3ccc(Oc4cccc(OC)c4F)cc3)c3cncc(OC4CCOC4)c32)C1 (stereo partly drawn) [Example 99, 1-((3R)-3-(3-(4-(2-fluoro-3-methoxyphenoxy)phenyl)-7-((tetrahydrofuran-3-yl)oxy)-1H-pyrazolo[4,3-c]pyridin-1-yl)piperidin-1-yl)prop-2-en-1-one] | 
16 | 100 nM | C=CC(=O)N1CCC[C@@H](n2nc(-c3ccc(Oc4cccc(OC)c4F)cc3)c3cncc(OCC)c32)C1 [Example 73, (R)-1-(3-(7-ethoxy-3-(4-(2-fluoro-3-methoxyphenoxy)phenyl)-1H-pyrazolo[4,3-c]pyridin-1-yl)piperidin-1-yl)prop-2-en-1-one] | Btk occupancy in vivo (Btk [3]; 5 mg/kg single oral dose): full occupancy
17 | 100 nM | C=CC(=O)N1CCC[C@@H](n2nc(-c3ccc(Oc4cccc(OC)c4F)cc3)c3cnccc32)C1 [Example 71, (R)-1-(3-(3-(4-(2-fluoro-3-methoxyphenoxy)phenyl)-1H-pyrazolo[4,3-c]pyridin-1-yl)piperidin-1-yl)prop-2-en-1-one] | Btk occupancy in vivo (Btk [3]; 10 mg/kg single oral dose): full occupancy
18 | 100 nM | C=CC(=O)N1CCC[C@@H](n2nc(-c3ccc(Oc4cccc(F)c4F)cc3)c3cnccc32)C1 [Example 17, (R)-1-(3-(3-(4-(2,3-difluorophenoxy)phenyl)-1H-pyrazolo[4,3-c]pyridin-1-yl)piperidin-1-yl)prop-2-en-1-one] | 
